Data set [1] addresses T1, Amine oxidase [flavin-containing] B (Homo sapiens, UniProt P27338).
T1 sequence (P27338 whole entry): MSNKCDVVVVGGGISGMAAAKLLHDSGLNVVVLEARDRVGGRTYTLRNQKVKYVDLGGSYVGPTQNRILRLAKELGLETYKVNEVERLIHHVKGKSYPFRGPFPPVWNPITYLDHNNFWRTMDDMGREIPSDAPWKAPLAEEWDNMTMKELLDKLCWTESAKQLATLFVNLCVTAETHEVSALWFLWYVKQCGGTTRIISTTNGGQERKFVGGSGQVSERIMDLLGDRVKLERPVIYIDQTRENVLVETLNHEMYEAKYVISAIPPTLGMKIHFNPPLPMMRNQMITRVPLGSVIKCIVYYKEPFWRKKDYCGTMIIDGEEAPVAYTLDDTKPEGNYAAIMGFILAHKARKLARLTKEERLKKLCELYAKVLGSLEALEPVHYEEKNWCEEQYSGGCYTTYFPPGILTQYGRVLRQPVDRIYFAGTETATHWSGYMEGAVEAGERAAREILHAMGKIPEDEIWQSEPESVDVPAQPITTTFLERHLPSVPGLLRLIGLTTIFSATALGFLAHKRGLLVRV
Put plainly: Inhibition of human recombinant MAO-B assessed as oxidation of kynuramine to 4-hydroxyquinoline after 20 mins.

In data set [2] the target is T2, Amine oxidase [flavin-containing] A (Homo sapiens, UniProt P21397).
T2 sequence (P21397 whole entry): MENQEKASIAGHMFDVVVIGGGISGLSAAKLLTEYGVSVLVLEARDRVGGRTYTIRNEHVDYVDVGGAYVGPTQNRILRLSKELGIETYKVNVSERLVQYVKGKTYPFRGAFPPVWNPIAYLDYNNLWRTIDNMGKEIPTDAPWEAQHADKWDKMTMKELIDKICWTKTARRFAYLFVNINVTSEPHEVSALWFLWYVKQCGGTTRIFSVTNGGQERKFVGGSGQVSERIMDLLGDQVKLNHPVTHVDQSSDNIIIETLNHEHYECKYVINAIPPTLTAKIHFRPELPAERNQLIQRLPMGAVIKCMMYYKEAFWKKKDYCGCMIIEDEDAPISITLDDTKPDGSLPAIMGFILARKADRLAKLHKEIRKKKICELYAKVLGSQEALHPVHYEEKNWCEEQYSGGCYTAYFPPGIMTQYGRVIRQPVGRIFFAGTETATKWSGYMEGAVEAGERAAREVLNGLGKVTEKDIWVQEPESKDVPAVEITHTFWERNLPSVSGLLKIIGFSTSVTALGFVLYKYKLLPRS
Description: Inhibition of human recombinant MAO-A assessed as oxidation of kynuramine to 4-hydroxyquinoline at 100 uM after 20 mins.

The target of data set [3] is T2, Amine oxidase [flavin-containing] A. Description: Inhibition of human recombinant MAO-A assessed as oxidation of kynuramine to 4-hydroxyquinoline after 20 mins.

With `O=C(/C=C/C=C/c1ccccc1)Nc1ccccc1`, the IC50 in data set [1] was 5.16 µM. Moreover, the “inhibition (INH)” value in data set [2] is given as “Not Active”.
The matching figures for `O=C(/C=C/c1cccc(O)c1)Nc1cccc(Br)c1`: 1.01 µM and “Not Active”.
Turning to `O=C(C/C=C/c1ccccc1)Nc1ccccc1`, the values for the IC50 in data set [1] and in data set [3] were 33.2 µM and 297 µM, respectively.
The corresponding values for `Cc1cccc(NC(=O)/C=C/C=C/c2ccccc2)c1` are 6.65 µM and 335 µM.
The corresponding values for `Cc1cccc(NC(=O)C/C=C/c2ccccc2)c1` are 48.1 µM and 74.8 µM.
As for `O=C(/C=C/c1ccccc1)Nc1cccc(Br)c1`, the figures for the IC50 in data set [1] and in data set [3] were 0.447 µM and 16.7 µM, respectively.
The matching figures for `O=C(/C=C/C=C/c1ccccc1)Nc1cccc(Cl)c1`: 2.2 µM and 98.2 µM.
The matching figures for `O=C(C/C=C/c1ccccc1)Nc1cccc(Cl)c1`: 23.5 µM and 58.4 µM.
The matching figures for `Cc1cccc(NC(=O)/C=C/c2ccccc2)c1` [N-M-TOLYLCINNAMAMIDE]: 4.5 µM and 48.1 µM.
For `O=C(C/C=C/c1ccccc1)Nc1cccc(Br)c1`, the IC50 in data set [1] was determined as 30.9 µM; in data set [3], 34.5 µM.
The matching figures for `N#Cc1cccc(/C=C/C(=O)Nc2cccc(Br)c2)c1`: 0.059 µM and 27.2 µM.
The matching figures for `O=C(/C=C/C=C/c1ccccc1)Nc1cccc(Br)c1`: 2.73 µM and 105 µM.
The corresponding values for `N#Cc1ccc(/C=C/C(=O)Nc2cccc(Cl)c2)cc1` are 0.407 µM and 184 µM.
As to `N#Cc1cccc(/C=C/C(=O)Nc2cccc(Cl)c2)c1`, the concentration for half-maximal inhibition (IC50) in data set [1] worked out at 0.09 µM; in data set [3], 13.5 µM.
The matching figures for `O=C(/C=C/c1ccc(O)cc1)Nc1cccc(Br)c1`: 0.026 µM and 35.6 µM.
`N#Cc1ccc(/C=C/C(=O)Nc2cccc(Br)c2)cc1`: the IC50 in data set [1] was 0.289 µM; in data set [3], 36.2 µM.

The values are drawn from ChEMBL document CHEMBL1828524, “Monoamine oxidase inhibition by selected anilide derivatives” (Eur J Med Chem, 2011).
